Source: patent US20190350964A1, “ANTI-CANCER COMPOUNDS AND USES THEREOF” (NATIONAL UNIVERSITY OF SINGAPORE, priority 2016, published 2019)

Key:
Adenosine kinase = target: T1, Adenosine kinase (Homo sapiens, UniProt P55263); test: MS-CETSA in normal BJ cell lysates; format: binding; details: lysate, 100 μM compound
T1 construct: After collecting data covering >8,000 proteins in lysates of normal BJ cells; endogenous in cells; host or cells: normal BJ cells, lysate
Experimental: (§2) Target identification was performed by cellular thermal shift assay (CETSA) coupled with quantitative mass spectrometry. In brief, normal BJ cells were lysed by combination of freeze/thaw and mechanical shearing with needle in buffer [50 mM HEPES (pH 7.5), 5 mM β-glycerophosphate, 0.1 mM Sodium Vanadate, 10 mM MgCl2, 1 mM TCEP and 1× Protease inhibitor Cocktail]. The cell debris was removed by centrifugation at 20,000 g for 20 min at 4° C. […] Each lysate was divided into 10 aliquots for heat treatment at the respective temperatures for 3 min in a 96-well thermocycler, followed by 3 min at 4° C. The lysate was centrifuged at 20,000 g for 20 min at 4° C. and the supernatant was transferred into microtubes for MS sample preparation.
(§3) After lysis, at least 100 μg of the protein (measured with a BCA assay) was subjected to reduction, denaturation and alkylation. Samples were subsequently incubated with sequencing grade LysC (Wako) and trypsin (Promega) for digestion overnight at 37° C. The digested samples were dried using a centrifugal vacuum evaporator, solubilized in 100 mM TEAB. […]
(§4) Proteins for which a low temperature plateau was not present were deleted using a cut off >0.85 for the average reading of the first three temperature points (in our experience proteins melting already at −37° C. are more prone to give false positives in a shift analysis).

cancer cell lines = test: FACS of subG1 (PI) and Annexin V in cancer and normal cell lines; format: cell-based, human; details: 2.5 μM and 5 μM, 48 h
Experimental: (§1) Cell death was assessed via Annexin V and/or PI (propidium iodide) staining according to the manufacturer's instructions (eBioscience). Cell growth arrest was assessed by direct measurement of DNA synthesis through incorporation of the nucleoside analog bromodeoxyuridine (BrdU). Briefly, BrdU (30 μM, Sigma-Aldrich) was added for 2 h before harvesting cells. Cells were subsequently stained with Pacific Blue-conjugated BrdU antibody (Invitrogen) for 1 h followed by PI staining. Stained cells were analyzed by MACSQuant (MACS). Three independent experiments were performed in triplicate. The percentage of Annexin V/PI- or BrdU-positive cells was quantified using Flow Jo software (Becton Dickinson). Where indicated, the combined activity of caspase-3/7 was determined using the caspase-Glo 3/7 Assay Kit (Promega) and normalized to the number of viable cells as determined by MTT assay.

SNU1750 = test: MTT cytotoxicity test (GI50); format: cell-based; details: Homo sapiens; SNU1750, cancer, gastric; MTT 72 h
AGS = test: MTT cytotoxicity test (GI50); format: cell-based; details: Homo sapiens, cancer, gastric, MTT 72 h
DLD1 = test: MTT cytotoxicity test (GI50); format: cell-based; details: Homo sapiens, DLD-1; DLD1, cancer, colon; MTT 72 h
Pyridoxal kinase = target: T2, Pyridoxal kinase (Homo sapiens, UniProt O00764); test: MS-CETSA in normal BJ cell lysates; format: binding; details: lysate, 100 μM compound
T2 construct: After collecting data covering >8,000 proteins in lysates of normal BJ cells; endogenous in cells; host or cells: normal BJ cells, lysate
Experimental: as §2, §3, §4

human normal cell lines = test: MTT cytotoxicity test, panel of human normal cell lines; format: cell-based; details: mean over panel of human normal cell lines; MTT 72 h
[1] = system: normal and transformed BJ cells; test: a131 SAR analysis: pH3(Ser10) immunoblot, BrdU incorporation, subG1 FACS; format: cell-based, human; set-up: key: Group 1: possess the dual-inhibitory properties of both causing the arrest of normal BJ cells at the G1/S phase and also causing mitotic arrest/catastrophe in transformed BJ cells; Group 2: only cause the arrest of normal BJ cells at the G1/S phase; Group 3: cause mitotic arrest/catastrophe in transformed BJ cells, but do not arrest normal BJ cells at the G1/S phase; Group 4: are inactive or weakly active; details: 5 μM, 48 h
Experimental: as §1
Total cell lysates were prepared with 1% triton lysis buffer [25 mM Tris HCl (pH 8.0), 150 mM NaCl, 1% triton-X100, 1 mM dithiothreitol (DTT), protease inhibitor mix (Complete Mini, Roche) and phosphatase inhibitor (PhosphoStop, Roche)] and subjected to SDS-PAGE. The following antibodies were used for immunoblotting: anti-β-actin (Sigma-Aldrich), anti-cleaved PARP (Abcam, #ab32064), anti-PI5P4Kα (#5527), anti-PI5P4Kβ (#9694), anti-cleaved caspase-3 (#9664), anti-pHistone H3(Ser10) (#3377), anti-pAkt(S473) (#9271), anti-pAkt(T308) (#13038), anti-total Akt (#9272), anti-p70S6K(T389) (#9234), anti-total p70S6K (#9202), anti-pErk (#4370), anti-γ-Histone H2AX (#9718) (Cell signaling) and anti-PIK3IP1 (Proteintech, #16826-1-AP). The secondary antibodies used were sheep anti-mouse IgG HRP and donkey anti-rabbit IgG HRP (Amersham; 1:2000 dilution). Immunoreactive proteins were visualized using ECL reagent (Amersham). Where indicated, intensities of protein bands were quantified by densitometry (Odyssey V3.0), normalized to their loading controls and then calculated as fold expression change relative to DMSO control.

T1 sequence (P55263 whole entry): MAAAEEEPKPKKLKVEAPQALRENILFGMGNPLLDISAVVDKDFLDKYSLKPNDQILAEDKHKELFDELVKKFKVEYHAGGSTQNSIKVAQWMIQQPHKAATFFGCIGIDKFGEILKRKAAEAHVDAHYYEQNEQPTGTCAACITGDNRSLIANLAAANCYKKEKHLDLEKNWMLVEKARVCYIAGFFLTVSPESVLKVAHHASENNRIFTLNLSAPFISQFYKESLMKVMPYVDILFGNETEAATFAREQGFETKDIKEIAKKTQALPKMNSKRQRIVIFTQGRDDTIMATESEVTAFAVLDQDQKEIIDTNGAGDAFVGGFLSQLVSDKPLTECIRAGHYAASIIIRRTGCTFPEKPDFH
T2 sequence (O00764 whole entry): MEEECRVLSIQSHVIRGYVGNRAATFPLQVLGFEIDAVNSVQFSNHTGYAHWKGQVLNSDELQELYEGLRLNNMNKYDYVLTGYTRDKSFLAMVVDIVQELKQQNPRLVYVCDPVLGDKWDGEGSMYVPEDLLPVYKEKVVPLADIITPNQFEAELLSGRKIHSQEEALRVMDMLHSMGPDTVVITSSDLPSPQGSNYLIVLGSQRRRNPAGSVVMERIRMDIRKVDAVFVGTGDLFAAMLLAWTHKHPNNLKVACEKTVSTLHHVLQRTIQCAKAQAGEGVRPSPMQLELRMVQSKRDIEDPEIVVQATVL

SMILES: N#C/C(=C\c1cccc2cnccc12)c1c[nH]c2ccccc12 [a131, (Z)-2-(1H-indol-3-yl)-3-(5-isoquinolyl)prop-2-enenitrile]
- ED score (Adenosine kinase): 0.4158
- ΔTm at 100 µM (Adenosine kinase; read-out: mean Delta Tm): 1.74 °C
- percentage of cells expressing Annexin V versus DMSO (cancer cell lines): significantly higher (p<0.0001)
- percentage of subG1 population versus DMSO (cancer cell lines; cancer cells): significantly higher (p<0.0001)
- GI50 (SNU1750): 0.7 µM
- GI50 (AGS): 1.1 µM
- GI50 (DLD1): 1.2 µM
- ED score (Pyridoxal kinase): 0.4486
- ΔTm at 100 µM (Pyridoxal kinase; read-out: mean Delta Tm): 2.01 °C
- GI50 (human normal cell lines): 6.5 µM
- Group (a131 SAR analysis) [1]: Group 1
